In patent publication US20170008888A1 (KYORIN PHARMACEUTICAL CO., LTD., priority 2014, published 2017) one finds EC50 data, which are given here for six compounds.

Like-named read-outs stand apart in the source and are kept apart here.

The subject of one experiment is murine Th17 cells. The experiment in a line: Cytokine response by in vitro-polarized murine Th17 cells stimulated with PMA/ionomycin. Type of experiment: cell-based. Conditions: Mus musculus, PMA/ionomycin 20 h. The method, then:
Purification of murine CD4+ T cells: To isolate mouse splenocytes, freshly isolated mouse spleens were minced in culture media (RPMI 1640 (Lonza, Allendale, N.J.) containing 10% (v/v) charcoal-dextran filtered, heat inactivated FBS (Omega Scientific, Tarzana, Calif.), 0.05 mM 2-Mercaptoethanol (Sigma-Aldrich, St. Louis, Mo.), and 1×Pen/Strep Amphotericin B (Lonza)), using a sterile razor blade then pushed through 70 and 40 μm cell strainers. Cells were resuspended in ACK Lysing Buffer (Lonza) for 3 minutes at room temperature to lyse the red blood cells. CD4+ T cells were isolated from the mouse splenocytes using the EasySep negative selection mouse CD4+ T cell isolation kit (Stemcell, Vancouver, Canada) according to manufacturer's instructions briefly as follows: Unwanted cells were specifically labeled by incubation with a cocktail of biotinylated antibodies directed against cell surface antigens on mouse cells of hematopoietic origin (CD8a, CD11b, CD11c, CD19, CD45R/B220, CD49b, TCRγ/δ, and TER119). Labeled cells were then magnetically removed using streptavidin-bound magnetic beads, leaving the desired CD4+ T cells.
In vitro mouse Th17 differentiation: Mouse CD4+ T cells isolated as above were polarized into Th17 cells as follows: Tissue culture-treated 100 mm plates (Corning, Corning, N.Y.) were coated with 2 μg/ml purified NA/LE hamster anti-mouse CD3e clone 145-2C11 antibody (BD Biosciences, San Jose, Calif.) overnight at 4° C. Each coated plate was seeded with ˜2-3 e6 mouse CD4+ T cells in polarization media consisting of culture media (RPMI 1640/FBS/2-Mercaptoethanol/Pen/Strep Amphotericin B) supplemented with: recombinant mouse IL-6 (50 ng/ml), […] (50 ng/ml), IL-23 (50 ng/ml)(R&D Systems, Minneapolis, Minn.), recombinant human TGF1β (5 ng/ml) (Cell Signaling Technology, Danvers, Mass.), anti-CD28 clone 37.51 (10 μg/ml)(BD Biosciences, San Jose, Calif.), anti-IL-2 clone JES6-1A12 (1 μg/ml), anti-IL-4 clone 11B11 (10 μg/ml), and anti-IFNγ clone XMG1.2 (10 μg/ml). All recombinant mouse cytokines and anti-mouse neutralizing antibodies were purchased from eBioscience (San Diego, Calif.) unless otherwise specified. Cells were incubated in the above Polarization media for 3 d at 37° C. in a humidified atmosphere at 5% CO2. After 3 d, cells were re-polarized as above, except for the following cytokine and neutralizing antibody concentration changes: recombinant mouse IL-6 (40 ng/ml), recombinant human TGFβ (1 ng/ml), anti-CD28 clone 37.51 (5 μg/ml), anti-IL-2 clone JES6-1A12 (0.5 μg/ml), anti-IL-4 clone 11B11 (5 μg/ml), and anti-IFNγ clone XMG1.2 (5 μg/ml). Cells were maintained under the above conditions for an additional 3 d at 37° C. in humidified atmosphere at 5% CO2 for a total of 6 days of polarization.
Inhibition of cytokine response by in vitro-polarized murine Th17 cells stimulated with PMA/ionomycin: Murine Th17 cells, polarized as described above, were seeded at 2e6 cells/ml in culture media. Cells were pre-treated with test compounds (10 μM down by ⅕ in a 4-point serial dilution series) for 1 h at 37° C. in a humidified atmosphere at 5% CO2. Cells were then stimulated with 50 ng/ml phorbol 12-myristate 13-acetate (PMA)(Sigma-Aldrich, St. Louis, Mo.)+1 μg/ml ionomycin (Life Technologies, Grand Island, N.Y.) for 20 h at 37° C. in a humidified atmosphere at 5% CO2. Supernatant was collected and analyzed using Bio-Plex Pro Mouse Cytokine Th17 Panel A 6-Plex and the Bio-Plex Pro Mouse Cytokine Th17 Panel B 8-Plex (Bio-Rad Laboratories, Hercules, Calif.) as per manufacturer's protocols. Magnetic beads were read on the Bio-Plex MAGPIX multiplex reader instrument using the accompanying xPONENT 4.2 acquisition software (Bio-Rad Laboratories, Hercules, Calif.). Data were analyzed via the Bio-Plex Manager software v6.1 (Bio-Rad Laboratories).

Experiment [1] has as its system primary asthmatic human bronchial epithelial cells. Kind of experiment: IL-17A- or IL-17F-mediated cytokine response by primary asthmatic human bronchial epithelial cells. Type of experiment: cell-based. As to conditions: Epithelial cell, 48 h, 48 h. The method, then: The virally immortalized, normal human bronchial epithelial cell line BEAS-2B was purchased from ATCC (Manassas, Va.). Primary bronchial epithelial cells isolated from a patient diagnosed with asthma were obtained from Lonza (Allendale, N.J.). Both cells were maintained in complete Bronchial Epithelial Cell Growth Medium (BEGM) (Lonza). Cells were seeded at 1e5 cells/ml and incubated at 37° C. in a humidified atmosphere at 5% CO2 overnight to adhere. Cells were pre-treated with test compounds (10 μM down by ⅕ in a 3- or 4-point serial dilution series) for 1 h at 37° C. in a humidified atmosphere at 5% CO2. DMSO at a final concentration of 0.1% served as the non-inhibited control. Budesonide (Selleck Chemicals, Houston, Tex.), a clinically approved glucocorticoid steroid for the treatment of asthma, was tested as a positive control at 0.25 μM. Cells were stimulated with 50 ng/ml of either human recombinant IL-17A or IL-17F (eBioscience, San Diego, Calif.), for 48 h. Supernatant was then collected and analyzed for cytokine concentrations using the Bio-Plex Pro Human Cytokine 17-Plex Panel (Bio-Rad Laboratories, Hercules, Calif.) according to the manufacturer's instructions. Magnetic beads were measured on the Bio-Plex MAGPIX multiplex reader instrument using the accompanying xPONENT 4.2 acquisition software (Bio-Rad Laboratories). Data were analyzed via the Bio-Plex Manager software v6.1 (Bio-Rad Laboratories). For the primary asthmatic bronchial epithelial cells, five (+IL-17F) to thirteen (+IL-17A) cytokines were in range of detection under the conditions used. […] Select cytokines were analyzed for comparison using the BEAS-2B cell line.
BLQ: cytokine levels were below limits of quantitation.

Setting [2] is: read-out: EC50 (nM) of cytokine reduction, IFNγ.
The mark [3] stands for this setting: read-out: EC50 (nM) of cytokine reduction, IL-6.
Where [4] appears, read: read-out: EC50 (nM) of cytokine reduction, IL-10.
The mark [5] stands for this setting: read-out: EC50 (nM) of cytokine reduction, IL-17A.
The mark [6] stands for this setting: read-out: EC50 (nM) of cytokine reduction, IL-21.
[7] abbreviates: read-out: EC50 (nM) of cytokine reduction, IL-22.
Setting [8] is: read-out: EC50 (nM) of cytokine reduction, IL-23p19.
[9] abbreviates: +50 ng/ml IL-17A, read-out: EC50 values (μM), G-CSF.
Setting [10] is: +50 ng/ml IL-17A, read-out: EC50 values (μM), GM-CSF.
[11] abbreviates: +50 ng/ml IL-17A, read-out: EC50 values (μM), IFN-γ.
Where [12] appears, read: +50 ng/ml IL-17A, read-out: EC50 values (μM), IL-1β.
[13] abbreviates: +50 ng/ml IL-17A, read-out: EC50 values (μM), IL-2.
The mark [14] stands for this setting: +50 ng/ml IL-17A, read-out: EC50 values (μM), IL-6.
Setting [15] is: +50 ng/ml IL-17A, read-out: EC50 values (μM), IL-8.
The mark [16] stands for this setting: +50 ng/ml IL-17A, read-out: EC50 values (μM), MCP-1.
Setting [17] is: +50 ng/ml IL-17F, read-out: EC50 values (μM), G-CSF.
Setting [18] is: +50 ng/ml IL-17F, read-out: EC50 values (μM), IFN-γ.
Setting [19] is: +50 ng/ml IL-17F, read-out: EC50 values (μM), IL-1β.
Setting [20] is: +50 ng/ml IL-17F, read-out: EC50 values (μM), IL-6.
[21] abbreviates: +50 ng/ml IL-17F, read-out: EC50 values (μM), IL-8.

In general, EC50 refers to the midpoint of the concentration-response curve. Take `CCOc1cc(C(=O)N2CCC(N3CCCC3)CC2)ccc1Nc1cc2c(cn1)N(C)C(=O)c1ccccc1N2C` [Compound 46, 3-(2-Ethoxy-4-(4-(pyrrolidin-1-yl)piperidine-1-carbonyl)phenylamino)-5,11-dimethyl-5H-benzo[e]pyrido[3,4-b][1,4]diazepin-10(11H)-one]: the EC50 in the experiment with murine Th17 cells (setting [2]) is 4270 nM; in the experiment with murine Th17 cells (setting [3]), 1740 nM; in the experiment with murine Th17 cells (setting [4]), 577 nM; with murine Th17 cells (setting [5]), more than 10000 nM; in the experiment on murine Th17 cells (setting [6]), 4850 nM; with murine Th17 cells (setting [7]), 2630 nM. The half-maximal effective concentration (EC50) in the experiment with murine Th17 cells (setting [8]) was 480 nM.

Regarding `CCOc1cc(C(=O)NCC2CC2)ccc1Nc1cc2c(cn1)N(C)C(=O)c1ccccc1N2C` [Compound 57], the EC50 is 6930 nM with murine Th17 cells (setting [2]); 2920 nM in the experiment on murine Th17 cells (setting [3]); 2150 nM in the experiment on murine Th17 cells (setting [4]); more than 10000 nM in the experiment on murine Th17 cells (setting [5]); 3990 nM in the experiment with murine Th17 cells (setting [6]); 2120 nM in the experiment with murine Th17 cells (setting [7]). Besides, in the experiment on murine Th17 cells (setting [8]), the concentration for a half-maximal effect (EC50) stood at 840 nM.

In the case of `CCOc1cc(C(=O)N2CCC(N3CCN(C)CC3)CC2)ccc1Nc1cc2c(cn1)N(C)C(=O)c1ccccc1N2C` [Compound 61], the EC50 in the experiment on murine Th17 cells (setting [2]) was more than 10000 nM; in the experiment with murine Th17 cells (setting [3]), 1600 nM; with murine Th17 cells (setting [4]), 1090 nM; in the experiment on murine Th17 cells (setting [5]), more than 10000 nM; in the experiment on murine Th17 cells (setting [6]), 4240 nM; in the experiment with murine Th17 cells (setting [7]) it was 2980 nM. Moreover, the EC50 is 800 nM with murine Th17 cells (setting [8]); 1.66 µM in experiment [1] (setting [9]); 3.38 µM in experiment [1] (setting [10]); more than 10 µM in experiment [1] (setting [11]); 1.26 µM in experiment [1] (setting [12]); 10.5 µM in experiment [1] (setting [13]). Also, the EC50 in experiment [1] (setting [14]) was determined as 0.5 µM; in experiment [1] (setting [15]), 0.51 µM; in experiment [1] (setting [16]), 6.25 µM; in experiment [1] (setting [17]), 0.91 µM; in experiment [1] (setting [18]) it was 0.6 µM; in experiment [1] (setting [19]), 0.79 µM. The EC50 in experiment [1] (setting [20]) turned out to be 0.38 µM; in experiment [1] (setting [21]) it was 0.52 µM.

As to `CCOc1cc(C(=O)N2CCNCC2)ccc1Nc1cc2c(cn1)N(C)C(=O)c1ccccc1N2C` [Compound 62], the EC50 with murine Th17 cells (setting [2]) was 8540 nM; in the experiment on murine Th17 cells (setting [3]) it was 2480 nM; in the experiment with murine Th17 cells (setting [4]) it was 1820 nM; in the experiment on murine Th17 cells (setting [5]), more than 10000 nM; in the experiment with murine Th17 cells (setting [6]), 4980 nM; in the experiment on murine Th17 cells (setting [7]), 5010 nM. Also, the EC50 in the experiment on murine Th17 cells (setting [8]) was 1340 nM.

Take `CCOc1cc(C(=O)N2CCC(N3CCN(C)CC3)CC2)ccc1Nc1cc2c(cn1)N(C)C(=O)c1occc1N2C` [Compound 65]: the EC50 in the experiment on murine Th17 cells (setting [2]) is more than 10000 nM; in the experiment with murine Th17 cells (setting [3]), 2380 nM; with murine Th17 cells (setting [4]), 979 nM; with murine Th17 cells (setting [5]), more than 10000 nM; with murine Th17 cells (setting [6]), 8280 nM; with murine Th17 cells (setting [7]), 5080 nM. Also, the EC50 in the experiment with murine Th17 cells (setting [8]) is 940 nM; in experiment [1] (setting [9]) it was 2.68 µM; in experiment [1] (setting [10]) it was 4.06 µM; in experiment [1] (setting [11]) it was more than 10 µM; in experiment [1] (setting [12]), 1.57 µM; in experiment [1] (setting [13]) it was more than 10 µM. In addition, the EC50 in experiment [1] (setting [14]) is 0.56 µM; in experiment [1] (setting [15]) it was 0.63 µM; in experiment [1] (setting [16]), more than 10 µM; in experiment [1] (setting [17]), 1.77 µM; in experiment [1] (setting [18]), 1.98 µM; in experiment [1] (setting [19]), 1.57 µM. Further, the 50% effective concentration (EC50) in experiment [1] (setting [20]) came out at 0.59 µM; in experiment [1] (setting [21]) it was 1.27 µM.

Turning to `CCOc1cc(C(=O)N2CC[C@@H](N(C)C)C2)ccc1Nc1cc2c(cn1)N(C)C(=O)c1ccccc1N2C` [Compound 115], the EC50 came out at 1770 nM with murine Th17 cells (setting [2]); 1170 nM with murine Th17 cells (setting [3]); 373 nM with murine Th17 cells (setting [4]); 4980 nM in the experiment on murine Th17 cells (setting [5]); 2110 nM with murine Th17 cells (setting [6]); 880 nM with murine Th17 cells (setting [7]). The EC50 in the experiment on murine Th17 cells (setting [8]) was 360 nM; in experiment [1] (setting [9]) it was 0.66 µM; in experiment [1] (setting [10]), 1.39 µM; in experiment [1] (setting [11]), more than 10 µM; in experiment [1] (setting [12]), 0.95 µM; in experiment [1] (setting [13]), 5.31 µM. Also, the EC50 was 0.16 µM in experiment [1] (setting [14]); 0.15 µM in experiment [1] (setting [15]); 6.1 µM in experiment [1] (setting [16]); 0.21 µM in experiment [1] (setting [17]); 0.34 µM in experiment [1] (setting [18]); 0.38 µM in experiment [1] (setting [19]). In addition, the EC50 in experiment [1] (setting [20]) is 0.34 µM; in experiment [1] (setting [21]), 0.28 µM.
